# Laboratory results taken from patent US10442807B2, “Aryl substituted bicyclic compounds as herbicides” (FMC Corporation, priority 2015, dated 2019).
# Legend:
# Assay type in all cases: in vivo
# corn (Zea mays) = experiment: Test A postemergence application, visual injury rating; conditions: approx. 10 d, 0 = no effect, 100 = complete control
# Method in brief: (§1)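 Rated visually against untreated controls after approx. 10 d in greenhouse, scale 0 = no effect, 100 = complete control. Seeded loam/sand blend given directed soil spray preemergence, or plants sprayed at one- to two-leaf stage, 2-10 cm tall; surfactant-containing non-phytotoxic solvent formulation.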
# [1] = system: pigweed (Amaranthus retroflexus); experiment: as above; conditions: approx. 10 d, 0 = no effect, 100 = complete control
# Method in brief: as §1
# [2] = system: barnyardgrass (Echinochloa crus-galli); experiment: as above; conditions: approx. 10 d, 0 = no effect, 100 = complete control
# Method in brief: as §1
# [3] = system: galium (catchweed bedstraw, Galium aparine); experiment: as above; conditions: approx. 10 d, 0 = no effect, 100 = complete control
# Method in brief: as §1
# [4] = system: blackgrass (Alopecurus myosuroides); experiment: as above; conditions: approx. 10 d, 0 = no effect, 100 = complete control
# Method in brief: as §1
# [5] = system: wheat (Triticum aestivum); experiment: as above; conditions: approx. 10 d, 0 = no effect, 100 = complete control
# Method in brief: as §1
# [6] = system: ryegrass, Italian (Italian ryegrass, Lolium multiflorum); experiment: as above; conditions: approx. 10 d, 0 = no effect, 100 = complete control
# Method in brief: as §1
# kochia (Kochia scoparia) [7] = experiment: as above; conditions: approx. 10 d, 0 = no effect, 100 = complete control
# Method in brief: as §1
# [8] = system: ragweed (common ragweed, Ambrosia elation); experiment: as above; conditions: approx. 10 d, 0 = no effect, 100 = complete control
# Method in brief: as §1
# [9] = system: foxtail, giant (giant foxtail, Setaria faberii); experiment: as above; conditions: approx. 10 d, 0 = no effect, 100 = complete control
# Method in brief: as §1
# [10] = system: pigweed (Amaranthus retroflexus); experiment: Test A preemergence, directed soil spray, visual injury rating; conditions: approx. 10 d, 0 = no effect, 100 = complete control
# Method in brief: as §1
# [11] = system: barnyardgrass (Echinochloa crus-galli); experiment: as above; conditions: approx. 10 d, 0 = no effect, 100 = complete control
# Method in brief: as §1
# [12] = system: ryegrass, Italian (Italian ryegrass, Lolium multiflorum); experiment: as above; conditions: approx. 10 d, 0 = no effect, 100 = complete control
# Method in brief: as §1
# kochia (Kochia scoparia) [13] = experiment: as above; conditions: approx. 10 d, 0 = no effect, 100 = complete control
# Method in brief: as §1
# [14] = system: ragweed (common ragweed, Ambrosia elation); experiment: as above; conditions: approx. 10 d, 0 = no effect, 100 = complete control
# Method in brief: as §1
# [15] = system: foxtail, giant (giant foxtail, Setaria faberii); experiment: as above; conditions: approx. 10 d, 0 = no effect, 100 = complete control
# Method in brief: as §1
# [16] = system: sedge, umbrella (small-flower umbrella sedge, Cyperus difformis); experiment: Test B flooded paddy test, visual plant response rating; conditions: 250 g ai/ha; applied to paddy water at 2-leaf stage; rated after 13 to 15 days; scale 0 to 100, 0 is no effect, 100 is complete control
# Method in brief: (§2)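 Ratings compare treated with control plants by eye, scored 0 (no effect) to 100 (complete control). Application is into paddy water 3 cm deep over soil, maintained at that level for 13–15 days under greenhouse conditions.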
# [17] = system: barnyardgrass (Echinochloa crus-galli); experiment: as above; conditions: 250 g ai/ha; applied to paddy water at 2-leaf stage; rated after 13 to 15 days; scale 0 to 100, 0 is no effect, 100 is complete control
# Method in brief: as §2
# rice (Oryza sativa) = experiment: as above; conditions: 250 g ai/ha; applied to paddy water at 2-leaf stage; rated after 13 to 15 days; scale 0 to 100, 0 is no effect, 100 is complete control
# Method in brief: as §2
# [18] = system: ducksalad (Heteranthera limosa); experiment: as above; conditions: 250 g ai/ha; applied to paddy water at 2-leaf stage; rated after 13 to 15 days; scale 0 to 100, 0 is no effect, 100 is complete control
# Method in brief: as §2
Compound,Corn plant response rating (0 to 100 scale) (corn (Zea mays); 125 g ai/ha),Corn plant response rating (0 to 100 scale) (corn (Zea mays); 500 g ai/ha),Pigweed plant response rating (0 to 100 scale) ([1]; 125 g ai/ha),Pigweed plant response rating (0 to 100 scale) ([1]; 500 g ai/ha),Barnyardgrass plant response rating (0 to 100 scale) ([2]; 125 g ai/ha),Barnyardgrass plant response rating (0 to 100 scale) ([2]; 500 g ai/ha),Galium plant response rating (0 to 100 scale) ([3]; 125 g ai/ha),Galium plant response rating (0 to 100 scale) ([3]; 500 g ai/ha),Blackgrass plant response rating (0 to 100 scale) ([4]; 125 g ai/ha),Blackgrass plant response rating (0 to 100 scale) ([4]; 500 g ai/ha),Wheat plant response rating (0 to 100 scale) ([5]; 125 g ai/ha),Wheat plant response rating (0 to 100 scale) ([5]; 500 g ai/ha),"Ryegrass, Italian plant response rating (0 to 100 scale) ([6]; 125 g ai/ha)","Ryegrass, Italian plant response rating (0 to 100 scale) ([6]; 500 g ai/ha)",Kochia plant response rating (0 to 100 scale) (kochia (Kochia scoparia) [7]; 125 g ai/ha),Kochia plant response rating (0 to 100 scale) (kochia (Kochia scoparia) [7]; 500 g ai/ha),Ragweed plant response rating (0 to 100 scale) ([8]; 125 g ai/ha),Ragweed plant response rating (0 to 100 scale) ([8]; 500 g ai/ha),"Foxtail, Giant plant response rating (0 to 100 scale) ([9]; 125 g ai/ha)","Foxtail, Giant plant response rating (0 to 100 scale) ([9]; 500 g ai/ha)",other results
CCc1ccc(C2Cn3c(C)nnc3C2C(=O)Nc2cccc(F)c2F)cc1 (stereo not drawn) [Compound 23],0,20,0,0,50,90,0,30,0,20,0,0,0,0,30,30,0,0,30,70,"Pigweed plant response rating (0 to 100 scale) ([10]; 125 g ai/ha): 0; Pigweed plant response rating (0 to 100 scale) ([10]; 500 g ai/ha): 20; Barnyardgrass plant response rating (0 to 100 scale) ([11]; 125 g ai/ha): 60; Barnyardgrass plant response rating (0 to 100 scale) ([11]; 500 g ai/ha): 90; Ryegrass, Italian plant response rating (0 to 100 scale) ([12]; 125 g ai/ha): 0; Ryegrass, Italian plant response rating (0 to 100 scale) ([12]; 500 g ai/ha): 0; Kochia plant response rating (0 to 100 scale) (kochia (Kochia scoparia) [13]; 125 g ai/ha): 20; Kochia plant response rating (0 to 100 scale) (kochia (Kochia scoparia) [13]; 500 g ai/ha): 40; Ragweed plant response rating (0 to 100 scale) ([14]; 125 g ai/ha): 0; Ragweed plant response rating (0 to 100 scale) ([14]; 500 g ai/ha): 0; Foxtail, Giant plant response rating (0 to 100 scale) ([15]; 125 g ai/ha): 70; Foxtail, Giant plant response rating (0 to 100 scale) ([15]; 500 g ai/ha): 90; Plant response rating, Flood, Sedge, Umbrella [16]: 0; Plant response rating, Flood, Barnyardgrass [17]: 0; Plant response rating, Flood, Rice (rice (Oryza sativa)): 0; Plant response rating, Flood, Ducksalad [18]: 80"
"Cc1nnc2n1CC(c1ccc(C(F)(F)F)cc1)C2C(=O)Nc1ccccc1F (stereo not drawn) [Compound 24, N-(2-fluorophenyl)-6,7-dihydro-3-methyl-6-[4-(trifluoromethyl)phenyl]-5H-pyrrolo[2,1-c]-1,2,4-triazole-7-carboxamide]",0,40,0,20,30,80,0,60,0,50,0,30,0,20,0,0,0,0,40,80,"Pigweed plant response rating (0 to 100 scale) ([10]; 125 g ai/ha): 0; Pigweed plant response rating (0 to 100 scale) ([10]; 500 g ai/ha): 20; Barnyardgrass plant response rating (0 to 100 scale) ([11]; 125 g ai/ha): 0; Barnyardgrass plant response rating (0 to 100 scale) ([11]; 500 g ai/ha): 40; Ryegrass, Italian plant response rating (0 to 100 scale) ([12]; 125 g ai/ha): 0; Ryegrass, Italian plant response rating (0 to 100 scale) ([12]; 500 g ai/ha): 30; Kochia plant response rating (0 to 100 scale) (kochia (Kochia scoparia) [13]; 125 g ai/ha): 0; Kochia plant response rating (0 to 100 scale) (kochia (Kochia scoparia) [13]; 500 g ai/ha): 60; Ragweed plant response rating (0 to 100 scale) ([14]; 125 g ai/ha): 0; Ragweed plant response rating (0 to 100 scale) ([14]; 500 g ai/ha): 30; Foxtail, Giant plant response rating (0 to 100 scale) ([15]; 125 g ai/ha): 30; Foxtail, Giant plant response rating (0 to 100 scale) ([15]; 500 g ai/ha): 90; Plant response rating, Flood, Sedge, Umbrella [16]: 0; Plant response rating, Flood, Barnyardgrass [17]: 0; Plant response rating, Flood, Rice (rice (Oryza sativa)): 0; Plant response rating, Flood, Ducksalad [18]: 0"
